The target in this experiment is T1, Lipase (Diutina rugosa, UniProt P20261).
T1 construct: gene LIP1
T1 sequence (P20261 16-549): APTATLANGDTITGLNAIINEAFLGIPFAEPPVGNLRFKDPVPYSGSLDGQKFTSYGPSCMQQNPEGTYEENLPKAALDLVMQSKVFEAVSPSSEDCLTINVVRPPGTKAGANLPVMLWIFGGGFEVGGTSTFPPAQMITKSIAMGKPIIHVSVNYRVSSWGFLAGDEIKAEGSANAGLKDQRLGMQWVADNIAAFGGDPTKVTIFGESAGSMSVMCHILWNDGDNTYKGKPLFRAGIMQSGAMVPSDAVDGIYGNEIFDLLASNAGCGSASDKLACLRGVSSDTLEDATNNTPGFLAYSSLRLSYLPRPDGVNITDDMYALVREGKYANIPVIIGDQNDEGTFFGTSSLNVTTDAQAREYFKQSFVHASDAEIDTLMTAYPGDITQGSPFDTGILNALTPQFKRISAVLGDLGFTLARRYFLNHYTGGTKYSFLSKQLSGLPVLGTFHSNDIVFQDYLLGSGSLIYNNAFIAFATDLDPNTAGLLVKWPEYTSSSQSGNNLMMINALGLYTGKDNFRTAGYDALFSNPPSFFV
The experiment is described as follows: lipase activity assay, personal glucose meter readout, % inhibition at […]. In kind it is biochemical.
With `Oc1cc(O)c2c(c1)O[C@H](c1cc(O)c(O)c(O)c1)[C@H](O)C2` [(−)-Epigallocatechin], the inhibition at 2000 µM was found to be 47.2 ± 1.6%.
The same measure for `O=C(O[C@@H]1Cc2c(O)cc(O)cc2O[C@@H]1c1ccc(O)c(O)c1)c1cc(O)c(O)c(O)c1` [(−)-Epicatechin gallate]: 46.5 ± 2.2%.
The same measure for `O=C(/C=C/c1ccc(O)c(O)c1)O[C@H](Cc1ccc(O)c(O)c1)C(=O)O` [Rosmarinic acid]: 39.3 ± 3%; for `Oc1cc(O)c2c(c1)O[C@H](c1ccc(O)c(O)c1)[C@H](O)C2` [Epicatechin]: 42.8 ± 1.8%.

The values are drawn from PMC9522516, “A Simple and Portable Personal Glucose Meter Method Combined with Molecular Docking for Screening of Lipase Inhibitors” (Evidence-based Complementary and Alternative Medicine : eCAM, 2022).
